≈ marks a conversion by molar mass, not a printed value. Square brackets hold non-standard residues; d marks the D form. Peptide text beside a SMILES is read from it. * marks the point of attachment. ξ: configuration not given here. Pro(3ξ,4ξ-(CH2)4) = O=C(O)[C@H]1NCC2CCCCC21; Tic = O=C(O)[C@@H]1Cc2ccccc2CN1; X1 = CC(=O)NC(=O)[C@H](CN)N*; Dap = NC[C@H](N)C(=O)O; GABA = NCCCC(=O)O
What was measured:
Type in all cases: functional
Acinetobacter baumannii = assay: Antibacterial activity against Acinetobacter baumannii WRAIR clinical isolate 13 after 24 hrs by broth microdilution method; conditions: WRAIR clinical isolate 13, 24 h
Klebsiella aerogenes = assay: Antibacterial activity against Enterobacter aerogenes after 24 hrs by broth microdilution method
Pseudomonas aeruginosa = assay: Antibacterial activity against Pseudomonas aeruginosa PAO1 after 24 hrs by broth microdilution method; conditions: PAO1, 24 h
Klebsiella pneumoniae = assay: Antibacterial activity against Klebsiella pneumoniae BAMS clinical isolate 07-18 after 24 hrs by broth microdilution method; conditions: BAMS clinical isolate 07-18, 24 h
Staphylococcus aureus = assay: Antibacterial activity against methicillin-sensitive Staphylococcus aureus UAMS-1 after 24 hrs by broth microdilution method; conditions: UAMS-1, 24 h
Enterococcus faecium = assay: Antibacterial activity against Enterococcus faecium MMC4 after 24 hrs by broth microdilution method; conditions: MMC4, 24 h

| SMILES | MBC (Acinetobacter baumannii) [µg/mL] | MIC (Acinetobacter baumannii) [µg/mL] | MBC (Klebsiella aerogenes) [µg/mL] | MIC (Klebsiella aerogenes) [µg/mL] | MBC (Pseudomonas aeruginosa) [µg/mL] | MIC (Pseudomonas aeruginosa) [µg/mL] | MBC (Klebsiella pneumoniae) [µg/mL] | MIC (Klebsiella pneumoniae) [µg/mL] | MBC (Staphylococcus aureus) [µg/mL] | MIC (Staphylococcus aureus) [µg/mL] | MBC (Enterococcus faecium) [µg/mL] | MIC (Enterococcus faecium) [µg/mL] |
| --- | --- | --- | --- | --- | --- | --- | --- | --- | --- | --- | --- | --- |
| CC(C)C[C@H](NC(=O)[C@@H](N)CCCCN)C(=O)N1Cc2ccccc2C[C@H]1C(=O)N1CC2CCCCC2[C@H]1C(=O)N[C@@H](CCCCN)C(=O)N1Cc2ccccc2C[C@H]1C(=O)N1CC2CCCCC2[C@H]1C(=O)N[C@@H](Cc1ccccc1)C(=O)N1Cc2ccccc2C[C@H]1C(=O)N1CC2CCCCC2[C@H]1C(=O)N[C@@H](CCCCN)C(=O)N1Cc2ccccc2C[C@H]1C(=O)N1CC2CCCCC2[C@H]1C(=O)N[C@@H](Cc1ccccc1)C(=O)N1Cc2ccccc2C[C@H]1C(=O)N1CC2CCCCC2[C@H]1C(=O)N[C@@H](CCCCN)C(=O)N1Cc2ccccc2C[C@H]1C(=O)N1CC2CCCCC2[C@H]1C(=O)N[C@@H](CCCCN)C(=O)N[C@@H](CCCNC(=N)N)C(N)=O (stereo partly specified) (H-KL[Tic][Pro(3ξ,4ξ-(CH2)4)]K[Tic][Pro(3ξ,4ξ-(CH2)4)]F[Tic][Pro(3ξ,4ξ-(CH2)4)]K[Tic][Pro(3ξ,4ξ-(CH2)4)]F[Tic][Pro(3ξ,4ξ-(CH2)4)]K[Tic][Pro(3ξ,4ξ-(CH2)4)]KR-NH2) | > 100 | 100 (≈ 32.4 µM) | > 100 | > 100 | > 100 | > 100 | > 100 | > 100 | 50 (≈ 16.2 µM) | 50 (≈ 16.2 µM) | 25 (≈ 8.11 µM) | 12.5 (≈ 4.05 µM) |
| CC(=O)NCCCC(=O)N[C@@H](Cc1ccccc1)C(=O)N1Cc2ccccc2C[C@H]1C(=O)N1CC2CCCCC2[C@H]1C(=O)NCCCC(=O)N[C@@H](CCCCN)C(=O)N1Cc2ccccc2C[C@H]1C(=O)N1CC2CCCCC2[C@H]1C(=O)NCCCC(=O)N[C@@H](Cc1ccccc1)C(=O)N1Cc2ccccc2C[C@H]1C(=O)N1CC2CCCCC2[C@H]1C(=O)NCCCC(=O)N[C@@H](CCCCN)C(=O)N1Cc2ccccc2C[C@H]1C(=O)N[C@@H](CCCCN)C(=O)N[C@@H](CCCCN)C(=O)N[C@@H](CCCCN)C(=O)N[C@@H](CCCCN)C(N)=O (stereo partly specified) (Ac-[GABA]F[Tic][Pro(3ξ,4ξ-(CH2)4)][GABA]K[Tic][Pro(3ξ,4ξ-(CH2)4)][GABA]F[Tic][Pro(3ξ,4ξ-(CH2)4)][GABA]K[Tic]KKKK-NH2) | 25 (≈ 9.79 µM) | 12.5 (≈ 4.9 µM) | > 100 | > 100 | > 100 | > 100 | 100 (≈ 39.2 µM) | 100 (≈ 39.2 µM) | > 100 | > 100 | 25 (≈ 9.79 µM) | 12.5 (≈ 4.9 µM) |
| CC(=O)NCC(=O)N[C@@H](Cc1ccccc1)C(=O)N1Cc2ccccc2C[C@H]1C(=O)N1CC2CCCCC2[C@H]1C(=O)NCC(=O)N[C@@H](CN)C(=O)N1Cc2ccccc2C[C@H]1C(=O)N1CC2CCCCC2[C@H]1C(=O)NCC(=O)N[C@@H](Cc1ccccc1)C(=O)N1Cc2ccccc2C[C@H]1C(=O)N1CC2CCCCC2[C@H]1C(=O)NCC(=O)N[C@@H](CN)C(=O)N1Cc2ccccc2C[C@H]1C(=O)N[C@@H](CN)C(=O)N[C@@H](CN)C(=O)N[C@@H](CN)C(=O)N[C@@H](CN)C(=O)NC(C)=O (stereo partly specified) (Ac-GF[Tic][Pro(3ξ,4ξ-(CH2)4)]G[Dap][Tic][Pro(3ξ,4ξ-(CH2)4)]GF[Tic][Pro(3ξ,4ξ-(CH2)4)]G[Dap][Tic][Dap][Dap][Dap]-X1) | 12.5 (≈ 5.6 µM) | 12.5 (≈ 5.6 µM) | 50 (≈ 22.4 µM) | 50 (≈ 22.4 µM) | 25 (≈ 11.2 µM) | 25 (≈ 11.2 µM) | 25 (≈ 11.2 µM) | 12.5 (≈ 5.6 µM) | 100 (≈ 44.8 µM) | > 100 | 100 (≈ 44.8 µM) | 50 (≈ 22.4 µM) |

From ChEMBL document CHEMBL2375306, “Antimicrobial peptides containing unnatural amino acid exhibit potent bactericidal activity against ESKAPE pathogens” (Bioorg Med Chem, 2013)
